Reference: patent US20100261711A1, “SELECTIVE ANTICONVULSANT AGENTS AND THEIR USES” (WiSys Technology Foundation, priority 2009, published 2010)
Where two headings read alike, the source gives them in different places. Marks after values point to notes of the source that are not given here.

Assays:
Type in all cases: in vivo
[1] = tested on: MES-induced seizures; assay: Maximal electroshock test (MES), rats
Method: The benzodiazepine derivative compounds selective for GABAa receptor subunits were tested for the ability to suppress seizures in several standard rat and mouse models of epilepsy. […] The standard models incorporated into anticonvulsant screening include the maximal electroshock test (MES), the subcutaneous Metrazol test (scMet), and evaluations of toxicity (TOX). The data for each condition is presented as a ratio of either the number of animals protected or toxic (loss of locomotor activity) over the number of animals tested at a given time point and dose.
The MES is a model for generalized tonic-clonic seizures and provides an indication of a compound's ability to prevent seizure spread when all neuronal circuits in the brain are maximally active. These seizures are highly reproducible and are electrophysiologically consistent with human seizures. For all tests based on MES convulsions, 60 Hz of alternating current (50 mA in mice, 150 in rats) is delivered for by corneal electrodes which have been primed with an electrolyte solution containing an anesthetic agent (0.5% tetracaine HCL). For Test 1, mice are tested at various intervals following doses of 30, 100 and 300 mg/kg of test compound given by ip injection of a volume of 0.01 mL/g. In Test 2, rats are tested after a dose of 30 mg/kg (po) in a volume of 0.04 mL/g. Test 8 uses varying doses administered via i.p. injection, again in a volume of 0.04 ml/g. […] In Antiepileptic Drugs, Levy, R. H. M., Meldrum, B. S., Eds.; Raven Press: New York, pp 99-110, 1995b.).

[2] = tested on: minimal motor deficit (ataxia, abnormal gait); assay: Toxicity (TOX), minimal motor deficit, rats; settings: for TOX (Rotorod Test), animals toxic/tested: Rat IP, 100 mg/kg
[3] = tested on: Metrazol-induced clonic seizures; assay: Subcutaneous Metrazol test (scMet), mice
[4] = tested on: 6 Hz psychomotor seizure; assay: Minimal clonic seizure (6 Hz) test; settings: Mice IP; for 6 Hz, animals protected/tested: 100 m/k; for ED50: Mus musculus, ip
How it was run: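 Mice dosed ip with test compound before 6 Hz corneal-type electrical stimulation lasting 3 s. Protection scored as absence of minimal clonic phase and stereotyped automatistic behaviour seen in untreated animals.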

[5] = tested on: MES-induced seizures; assay: Maximal electroshock test (MES), mice
[6] = Toxicity (TOX), rotorod procedure, mice; settings: mouse, in vivo; Mice IP, rotorod; read-out: TD50 TOX
[7] = tested on: minimal muscular or neurological impairment; assay: Toxicity (TOX), rotorod procedure, mice
[8] = Mice, 50 mg/kg PO (Mice IP), 0.5 hr
[9] = Mice, 50 mg/kg PO (Mice IP), 4.0 hr

C#Cc1ccc2c(c1)C(c1ccccc1F)=NCc1c(C(=O)OCC)ncn1-2 [JY-XHe-053 (15), Ethyl-8-acetyleno-6-(2′-fluorophenyl)-4H-benzo[f]imidazo[1,5-a][1,4]diazepine-3-carboxylate]
ED50 ([1]; Rat IP): > 30 mg/kg
ED50 ([1]; Rat PO): > 250 mg/kg
MES, animals protected/tested ([1]; Rat PO, 30 mg/kg, 0.5 h): 0/4
MES, animals protected/tested ([1]; Rat PO, 30 mg/kg, 1.0 h): 0/4
MES, animals protected/tested ([1]; Rat PO, 30 mg/kg, 2.0 h): 0/4
MES, animals protected/tested ([1]; Rat PO, 30 mg/kg, 4.0 h): 1/4
MES, animals protected/tested ([1]; Rat PO, 30 mg/kg, 6.0 h): 0/4
TOX (Rotorod Test), animals toxic/tested ([2]; 0.5 hr): 0/4
TOX (Rotorod Test), animals toxic/tested ([2]; 4.0 hr): 0/4
Tox, animals toxic/tested ([2]; Rat PO, 40 mg/kg, 4.0 h): 0/4^e
Tox, animals toxic/tested ([2]; Rat PO, 40 mg/kg, 6.0 h): 0/4^e
Tox, animals toxic/tested ([2]; Rat PO, 50 mg/kg, 0.5 h): 0/4
Tox, animals toxic/tested ([2]; Rat PO, 50 mg/kg, 1.0 h): 0/4
Tox, animals toxic/tested ([2]; Rat PO, 50 mg/kg, 2.0 h): 0/4
Tox, animals toxic/tested ([2]; Rat PO, 50 mg/kg, 4.0 h): 0/4
Tox, animals toxic/tested ([2]; Rat PO, 50 mg/kg, […]): 0/4
TD50 TOX ([2]; Rat PO, abnormal gait): >500 mg/kg
motor impairment / sedative or locomotor effects ([2]; rats, oral administration, up to 500 mg/kg): No motor impairment
scMet, animals protected/tested ([3]; Mice IP, 100 mg/kg, 0.5 hr): 5/5
scMet, animals protected/tested ([3]; Mice IP, 100 mg/kg, 4.0 hr): 0/1
scMet, animals protected/tested [3, 8]: 3/4
scMet, animals protected/tested [3, 9]: 4/4
ED50 ([3]; Mus musculus, Mice IP): 8.87 mg/kg
6 Hz, animals protected/tested ([4]; 44 mA, 0.5 hr): 4/4
6 Hz, animals protected/tested ([4]; 44 mA, 1.0 hr): 2/4
6 Hz, animals protected/tested ([4]; 44 mA, 2.0 hr): 2/4
6 Hz, animals protected/tested ([4]; 44 mA, 4 hr): 0/4
6 Hz, animals protected/tested ([4]; 44 mA, […]): 2/4
ED50 ([4]; 32 mA, read-out: ED50 32 mA (6 Hz test)): 39.2 mg/kg
MES, animals protected/tested ([5]; Mice IP, 100 mg/kg, 0.5 hr): 0/3
MES, animals protected/tested ([5]; Mice IP, 100 mg/kg, 4.0 hr): 0/3
MES, animals protected/tested [5, 8]: 1/4
MES, animals protected/tested [5, 9]: 0/4
ED50 ([5]; Mus musculus, Mice IP): > 200 mg/kg
TD50 [6]: > 400 mg/kg
TOX (Rotorod Test), animals toxic/tested ([7]; Mice IP, 100 mg/kg, 0.5 hr): 6/8
TOX (Rotorod Test), animals toxic/tested ([7]; Mice IP, 100 mg/kg, 4.0 hr): 0/4
TD50 TOX ([7]; Mice IP, rotorod): > 400 mg/kg
TOX (Rotorod Test), animals toxic/tested [7, 8]: 0/4
TOX (Rotorod Test), animals toxic/tested [7, 9]: 0/4

C#Cc1ccc2c(c1)C(c1ccccc1)=N[C@H](C)c1nnc(C)n1-2 [SH-TR-CH3 (146), (4R)-8-Ethynyl-1,4-dimethyl-6-phenyl-4H-benzo[f][1,2,4]triazolo[4,3-a][1,4]diazepine]
MES, animals protected/tested ([1]; Rat PO, 50 mg/kg, 0.5 h): 0/4
MES, animals protected/tested ([1]; Rat PO, 50 mg/kg, 1.0 h): 0/4
MES, animals protected/tested ([1]; Rat PO, 50 mg/kg, 2.0 h): 0/4
MES, animals protected/tested ([1]; Rat PO, 50 mg/kg, 4.0 h): 0/4
MES, animals protected/tested ([1]; Rat PO, 50 mg/kg, […]): 0/4
Tox, animals toxic/tested ([2]; Rat PO, 50 mg/kg, 0.5 h): 0/4
Tox, animals toxic/tested ([2]; Rat PO, 50 mg/kg, 1.0 h): 1/4
Tox, animals toxic/tested ([2]; Rat PO, 50 mg/kg, 2.0 h): 1/4
Tox, animals toxic/tested ([2]; Rat PO, 50 mg/kg, 4.0 h): 0/4
Tox, animals toxic/tested ([2]; Rat PO, 50 mg/kg, […]): 0/4
scMet, animals protected/tested ([3]; Mice IP, 30 mg/kg, 0.5 Hr): 0/1
scMet, animals protected/tested ([3]; Mice IP, 30 mg/kg, 4.0 Hr): 0/1
scMet, animals protected/tested ([3]; Mice IP, 100 mg/kg, 0.5 hr): 0/1
scMet, animals protected/tested ([3]; Mice IP, 100 mg/kg, 4.0 hr): 0/1
scMet, animals protected/tested ([3]; Mice IP, 300 mg/kg, 0.5 Hr): 1/1
scMet, animals protected/tested ([3]; Mice IP, 300 mg/kg, 4.0 Hr): 0/1
6 Hz Time to Peak Effect, protected/tested ([4]; 7 mg/kg, 32 mA, 0.25 Hr): 4/4
6 Hz Time to Peak Effect, protected/tested ([4]; 7 mg/kg, 32 mA, 0.5 Hr): 4/4
6 Hz Time to Peak Effect, protected/tested ([4]; 7 mg/kg, 32 mA, 1.0 Hr): 2/4
6 Hz Time to Peak Effect, protected/tested ([4]; 15 mg/kg, 32 mA, 0.25 Hr): 4/4
6 Hz Time to Peak Effect, protected/tested ([4]; 15 mg/kg, 32 mA, 0.5 Hr): 4/4^14
6 Hz Time to Peak Effect, protected/tested ([4]; 15 mg/kg, 32 mA, 1.0 Hr): 4/4^14
6 Hz Time to Peak Effect, protected/tested ([4]; 15 mg/kg, 32 mA, 2.0 Hr): 2/4
6 Hz Time to Peak Effect, protected/tested ([4]; 15 mg/kg, 32 mA, 4.0 Hr): 1/4
6 Hz Time to Peak Effect, protected/tested ([4]; 50 mg/kg, 32 mA, 0.25 Hr): 4/4^14
6 Hz Time to Peak Effect, protected/tested ([4]; 50 mg/kg, 32 mA, 0.5 Hr): 4/4^14
6 Hz Time to Peak Effect, protected/tested ([4]; 100 mg/kg, 32 mA, 0.25 Hr): 4/4^14
6 Hz Time to Peak Effect, protected/tested ([4]; 100 mg/kg, 32 mA, 0.5 Hr): 4/4^14
6 Hz Time to Peak Effect, protected/tested ([4]; 100 mg/kg, 32 mA, 1.0 Hr): 4/4^14
6 Hz Time to Peak Effect, protected/tested ([4]; 100 mg/kg, 32 mA, 2.0 Hr): 4/4^14
6 Hz Time to Peak Effect, protected/tested ([4]; 100 mg/kg, 32 mA, 4.0 Hr): 4/4^14
6 Hz ED50 Biological Response, protected/tested ([4]; 32 mA, 0.25 Hr, 1.75 mg/kg): 4/8
6 Hz ED50 Biological Response, protected/tested ([4]; 32 mA, 0.25 Hr, 7 mg/kg): 8/8
6 Hz ED50 Biological Response, protected/tested ([4]; 44 mA, 0.25 Hr, 5 mg/kg): 5/8
6 Hz ED50 Biological Response, protected/tested ([4]; 44 mA, 0.25 Hr, 10 mg/kg): 8/8
ED50 ([4]; […], 32 mA, 0.25 Hr, read-out: ED50 (6 Hz)): 2.08 mg/kg
ED50 ([4]; […], 44 mA, 0.25 Hr, read-out: ED50 (6 Hz)): 4.55 mg/kg
MES, animals protected/tested ([5]; Mice IP, 30 mg/kg, 0.5 Hr): 0/1
MES, animals protected/tested ([5]; Mice IP, 30 mg/kg, 4.0 Hr): 0/1
MES, animals protected/tested ([5]; Mice IP, 100 mg/kg, 0.5 hr): 0/3
MES, animals protected/tested ([5]; Mice IP, 100 mg/kg, 4.0 hr): 0/3
MES, animals protected/tested ([5]; Mice IP, 300 mg/kg, 0.5 Hr): 0/1
MES, animals protected/tested ([5]; Mice IP, 300 mg/kg, 4.0 Hr): 0/1
TOX (Rotorod Test), animals toxic/tested ([7]; Mice IP, 30 mg/kg, 0.5 Hr): 0/4
TOX (Rotorod Test), animals toxic/tested ([7]; Mice IP, 30 mg/kg, 4.0 Hr): 0/2
TOX (Rotorod Test), animals toxic/tested ([7]; Mice IP, 100 mg/kg, 0.5 hr): 1/8
TOX (Rotorod Test), animals toxic/tested ([7]; Mice IP, 100 mg/kg, 4.0 hr): 0/4
TOX (Rotorod Test), animals toxic/tested ([7]; Mice IP, 300 mg/kg, 0.5 Hr): 1/4
TOX (Rotorod Test), animals toxic/tested ([7]; Mice IP, 300 mg/kg, 4.0 Hr): 0/2
